# Data as given in patent US12285392B2, “Method for modulating metabolism” (Brightseed, Inc., priority 2018, dated 2025).
# Assays:
# [1] = Hepatic microsome stability assay, mouse; assay type: in vitro ADME; details: mouse microsomes
# Method: (§1) Hepatic Microsome Assay. Hepatic microsomes stability assays were performed in accordance with known methods (Peddibhotla, et al. (2013) ACS Med. Chem. Lett. 4:846-851). Briefly, 3 μL of 25 μM compound solution in acetonitrile were incubated with 123 μL of mouse, human or rat liver microsomes (Xenotech, Kansas City, Kans.). […] The microsomal concentrations used were 1.0 mg/mL. Compounds were incubated in microsomes for 0, 5, 15, 30 and 60 minutes. The reactions were stopped by the addition of ice cold ACN and the reaction mixtures were centrifuged at 10,000 g for 10 minutes before the supernatant was removed for analysis. A 10 μL portion of the resulting extract was injected on a Thermo HPLC system equipped with PAL CTC plate sampler (96-well plate), Dionex Ultimate 3000 binary pump (flow rate at 0.600 mL/min), Dionex Ultimate 3000 thermostatted column compartment (temperature at 40° C.), Thermo Endura Mass Spectrometer (ESI source), using a Thermo Scientific Accucore C18 (2.6 μM, 2.1×50 mm) column. A gradient was run starting at 95% H2O (0.1% formic acid) and 5% ACN (0.1% formic acid) during the first 0.5 min, then under gradient condition of 5-100% ACN (0.1% formic acid) from minute 0.5 to 3.5, finishing at 95% H2O (0.1% formic acid) and 5% ACN (0.1% formic acid) over 0.5 min, with another 1 min at 95:5 to re-equilibrate.
# [2] = Hepatic microsome stability assay, rat; assay type: in vitro ADME; details: rat microsomes
# Method: as §1
structure (smiles),measurement,setting,value
O=C(/C=C/c1ccc(O)c(O)c1)NCCc1ccc(O)cc1 [N-trans-caffeoyltyramine],% Remaining,[1]; 1 μM,0.4%
same,% Remaining,[1]; 10 μM,0.3%
same,% Remaining,[2]; 1 μM,0.6%
same,% Remaining,[2]; 10 μM,33.6%
